Experimental data published in US12044651B2, “Sensor device and methods” (SCENTIAN BIO LIMITED, priority 2016, dated 2024).

Legend:
[1] = biological target: T1, Or22a (Drosophila melanogaster, UniProt P81909); assay: QCM-D sensor with Or22a liposomes (Example 6); format: binding; conditions: 1.6 to 200 μM
T1 sequence (P81909 1-397): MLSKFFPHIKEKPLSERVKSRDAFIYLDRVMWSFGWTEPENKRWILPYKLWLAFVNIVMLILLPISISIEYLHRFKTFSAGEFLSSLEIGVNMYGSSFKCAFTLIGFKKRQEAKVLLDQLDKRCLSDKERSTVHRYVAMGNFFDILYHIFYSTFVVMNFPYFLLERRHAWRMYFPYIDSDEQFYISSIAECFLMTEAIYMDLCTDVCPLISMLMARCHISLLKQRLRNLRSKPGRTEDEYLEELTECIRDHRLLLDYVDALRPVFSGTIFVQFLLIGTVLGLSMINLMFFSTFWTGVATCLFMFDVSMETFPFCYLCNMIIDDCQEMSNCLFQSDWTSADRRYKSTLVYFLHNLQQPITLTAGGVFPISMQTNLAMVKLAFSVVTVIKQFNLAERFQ
Method: Gold (100 nm) sensor crystals were sonicated in ethanol and milli-Q water for 15 minutes each respectively. A 5:1:1 volume ratio of milli-Q water, ammonia (25%), and hydrogen peroxide (30%) was heated to 75° C. for 5 minutes and the sonicated crystals were placed in the heated solution for 5 minutes. Then the crystals were removed from the solution and rinsed with milli-Q water before drying with nitrogen gas. The clean gold crystals were thiol-functionalized by exposing them to 2 mM ethanolic solution of MHA overnight followed by washing with ethanol solution in order to remove excess or loosely bound molecules.

[2] = biological target: T1, Or22a; assay: CNT-FET sensor covalently functionalized with Or22a nanodiscs (Example 3); format: binding
Method: The dispersion was sonicated until a clear solution was obtained. The temperature was kept at 25° C. throughout the sonication process. The thiolpyridine solution was prepared by dissolving 10 mg of 2-Mercaptopyridine (99%, Sigma Aldrich) in 1 ml of methanol. The solution was spun coated on a polydimethylsiloxane (PDMS) surface at 2000 rpm for one minute. Before the spin coating process, the PDMS surface was cleaned by a 50 W Oxygen plasma for 1 minute to improve the wettability. The cleaned substrates were placed upside down on the PDMS surface for three minutes and washed in ethanol to remove the excess thiolpyridine molecules. Then the substrates were transferred into the CNT suspension and immersed into the suspension for 10 minutes. The samples were removed from the suspension and dipped into Ethanol for another 10 minutes to remove the thiolpyridine molecules in the SWNT network. The alignment markers were deposited by defining the markers by photolithography and thermal evaporation of 5 nm Chromium and 50 nm of Gold. The metal Lift off was done by acetone immersion for 15 minutes followed by an Isopropyl alcohol (IPA) wash and N2 blow dry. The result is a uniform thin film CNT network covering the entire substrate surface. The purification procedure is a variation on the one detailed in […] et al. 2013^14. […] Purity was assessed on Coomassie stained SDS-PAGE gels and Western blotting. […]

## CCCCCC(=O)OC [methyl hexanoate]
[1]
  change in oscillation frequency: increase in the frequency
[2]; nanodiscs 1:100 dilution
  limit of detection: below 1 fM
[2]; real time current measurement mode
  concentration at which clear electronic response starts: 1 fM
